Measured values from patent US20240041878A1, “APELIN RECEPTOR MODULATORS FOR TREATMENT OF A DISORDER OR DISEASE ASSOCIATED WITH BBB PERMEABILITY” (BioAge Labs, Inc., priority 2022, published 2024).

Assays:
Mouse astrocyte cells = assay: CXCL1 and IL-6 ELISA of astrocyte culture media after RAC treatment; type: cell-based; details: RAC+APL [50 nM]
Experimental: To stimulate astrocytes into a reactive state found in aging and neurodegenerative diseases per previous publications (Liddelow et al., 2017; Barbar et al., 2020), a combination of the cytokines TNF-α and IL-1α, and complement factor C1q, were added at 30 ng/mL, 3 ng/mL, and 400 ng/mL, respectively, into astrocyte culture media to make 'reactive astrocyte cocktail' (RAC) media. […] Bachem, Cat. #4029110), BAY-11-7082 (50 μM; Abcam, Cat. #ab141228) or equal volume of vehicle (0.01% DMSO in PBS) (hereafter referred to as 'RAC treatment'). Cells in Groups 3-6 were treated with RAC for 24 hours, with or without the test compounds (n=4 per group). • Group 1: Control [CON] • Group 2: CON+BGE-105 (50 nM) [CON+105] • Group 3: Reactive control treated with RAC only [RAC] • Group 4: RAC+BGE-105 (50 nM) [RAC+105] • Group 5: RAC+Pyrm-Apelin-13 (50 nM) • Group 6: RAC+BAY-11-7082 (NF-κB inhibitor; 50 μM) [RAC+BAY] Media from each tested cell group was collected for cytokine release analysis. Cells were lysed for RNA collection and RT-PCR was performed to synthesis cDNA under standard conditions. Next, transcriptome analysis was performed to determine the expression level of astrocyte genes or astrocyte responsive genes. Changes of expression was normalized to β-actin (FIGS. 8 and 9). Exemplary biomarkers include CCL2, CXCL10, CXCL11, CXCL1, CXCL2, CXCL3, CXCL8, EDN1, […]3, CIS, CTRL, C3, CFB, VEGF, and IL-6. For analysis of cytokines secreted by astrocytes, culture media was collected after RAC treatment, centrifuged at 10,000 RPM for 5 minutes to pellet any debris, and supernatant was transferred to a new tube and assayed immediately or frozen at -80° C. For individual analysis of CXCL1 or IL-6 concentrations, cell culture supernatant was diluted 1:50 or 1:10, respectively, and assessed using mouse-specific ELISA kits per manufacturer's protocols (R&D Systems, Cat. #DY453 and #DY406).

Mouse primary astrocytes = assay: Astrocyte glutamate uptake; type: cell-based; details: RAC+APL [50 nM] versus RAC
Experimental: To stimulate astrocytes into a reactive state found in aging and neurodegenerative diseases per previous publications (Liddelow et al., 2017; Barbar et al., 2020), a combination of the cytokines TNF-α and IL-1α, and complement factor C1q, were added at 30 ng/mL, 3 ng/mL, and 400 ng/mL, respectively, into astrocyte culture media to make 'reactive astrocyte cocktail' (RAC) media. […] Bachem, Cat. #4029110), BAY-11-7082 (50 μM; Abcam, Cat. #ab141228) or equal volume of vehicle (0.01% DMSO in PBS) (hereafter referred to as 'RAC treatment'). […] Fresh HBSS was added to each well and 100 μM glutamate (Sigma, Cat. #G1251) was added to each well. Empty wells not containing cells were filled with HBSS and 100 μM [NT] negative control. Cells were incubated at room temperature for 3 hours before HBSS was collected and glutamate concentration determined by colorimetric assay (Sigma, Cat. #MAK004). Relative change in glutamate uptake was calculated compared to negative control wells.

Substance: (Pyr^1)-Apelin-13 [reference compound]
- CXCL1 concentration/release compared with BGE-105 [50 nM] group (Mouse astrocyte cells): no significant difference
- IL-6 concentration/release compared with BGE-105 [50 nM] group (Mouse astrocyte cells): no significant difference
- percentage of glutamate uptake in RAC astrocytes (Mouse primary astrocytes): significantly and statistically increased
